Results from ChEMBL document CHEMBL5512617, “Tackling Influenza A virus by M2 ion channel blockers: Latest progress and limitations” (Eur J Med Chem, 2024).

Key:
[1] = molecular target: Matrix protein 2 (Influenza A virus (A/Udorn/307/1972(H3N2)), UniProt P0DOF8, V27A)
Influenza A virus = details: mdck

Compound | IC50 [1] [µM] | EC50 (Influenza A virus) [µM]
C1CCC2(CC1)CCNCC2 | > 200 | 
NC1CCC2(CC1)C1CC3CC(C1)CC2C3 (stereo unspecified) |  | 1.8
NC1CCCC2(CCCCCC2)CC1 (stereo unspecified) | 11.3 | 
N=C(N)NC1CCC2(CC1)C1CC3CC(C1)CC2C3 (stereo unspecified) | 0.5 | > 30
NCC1CCC2(CCCCC2)CC1 | 31.1 | 
CC(N)C1CCC2(CCCCC2)CC1 (stereo unspecified) | 25.2 | 
NC1CSC2(SC1)C1CC3CC(C1)CC2C3 (stereo unspecified) | 0.4 | 1
NC1CCCC2(CCCCC2)CC1 (stereo unspecified) | 68.1 | 
NC1CCC2(CCCCCC2)CC1 | 28.1 | 
